Measured values reported in patent US10206909B2, “3-(1H-pyrrolo[2,3-B]pyridin-2-yl)-1H-pyrazolo[4,3-B]pyridines and therapeutic uses thereof” (Samumed, LLC, priority 2015, dated 2019).

Assays:
Format in all cases: cell-based
[1] = test system: primary human fibroblasts derived from IPF patients (LL29 cells); assay: Inhibition of the fibrotic process: αSMA staining in TGF-β1 treated fibroblasts; conditions: Fibroblast, 96 h, LL29 cells, TGF-β1 20 ng/mL, 4 days, % αSMA positive cells
Excerpt: Representative compounds were screened using primary human fibroblasts (derived from IPF patients) treated with TGF-β1 to determine their ability to inhibit the fibrotic process.
Human Fibroblast Cell Culture: Primary human fibroblasts derived from IPF patients (LL29 cells) [^1Xiaoqiu Liu, et. al., “Fibrotic Lung Fibroblasts Show Blunted Inhibition by cAMP Due to Deficient cAMP Response Element-Binding Protein Phosphorylation”, Journal of Pharmacology and Experimental Therapeutics (2005), 315(2), 678-687; ^2Watts, K. L., et. al., “RhoA signaling modulates cyclin D1 expression in human lung fibroblasts; implications for idiopathic pulmonary fibrosis”, Respiratory Research (2006), 7(1), 88] were obtained from American Type Culture Collection (ATCC) and expanded in F12 medium supplemented with 15% Fetal Bovine Serum and Penicillin/Streptomycin.
Compound Screening: Each compound was dissolved in DMSO as a 10 mM stock and used to prepare compound source plates. Serial dilution (1:2, 11-point dose-response curves from 10 μM to […]) and compound transfer was performed using the ECHO 550 (Labcyte, Sunnyvale, Calif.) into 384-well clear bottom assay plates (Greiner Bio-One) with appropriate DMSO backfill for a final DMSO concentration of 0.1%. LL29 cells are plated at 1,500 cells/well in 80 μL/well F12 medium supplemented with 1% Fetal Bovine Serum. One hour after addition of the cells, TGF-β1 (Peprotech; 20 ng/mL) was added to the plates to induce fibrosis (ref. 1 and 2 above). Wells treated with TGF-β1 and containing DMSO were used as controls. Cells were incubated at 37° C. and 5% CO2 for 4 days. Following incubation for 4 days, SYTOX green nucleic acid stain (Life Technologies [Thermo Fisher Scientific]) was added to the wells at a final concentration of 1 μM and incubated at room temperature for 30 min. Cells were then fixed using 4% formaldehyde (Electron Microscopy Sciences), washed 3 times with PBS followed by blocking and permeabilization using 3% Bovine Serum Albumin (BSA; Sigma) and 0.3% Triton X-100 (Sigma) in PBS. Cells were then stained with antibody specific to α-smooth muscle actin (αSMA; Abcam) (ref. 1 and 2 above) in 3% Bovine Serum Albumin (BSA; Sigma) and 0.3% Triton X-100 (Sigma) in PBS, and incubated overnight at 4° C. Cells were then washed 3 times with PBS, followed by incubation with Alexa Flor-647 conjugated secondary antibody (Life Technologies [Thermo Fisher Scientific]) and DAPI at room temperature for 1 hour. Cells were then washed 3 times with PBS and plates were sealed for imaging. αSMA staining was imaged by excitation at 630 nm and emission at 665 nm and quantified using the Compartmental Analysis program on the CellInsight CX5 (Thermo Scientific). Dead or apoptotic cells were excluded from analysis based on positive SYTOX green staining. % of total cells positive for αSMA were counted in each well and normalized to the average of 11 wells treated with TGF-β1 on the same plate using Dotmatics' Studies Software. The normalized averages (fold change over untreated) of 3 replicate wells for each compound concentration were used to create dose-responses curves and EC50 values were calculated using non-linear regression curve fit in the Dotmatics' Studies Software. For EC50 of >10 μM, the percent inhibition at 10 μM is provided.

[2] = test system: Wnt activity (Sp5-Luc reporter, SW480 colon carcinoma cells); assay: Wnt activity screening assay: Sp5-Luc reporter gene assay in SW480 cells; conditions: Homo sapiens, SW480 cells, overnight incubation
Excerpt: The screening assay for Wnt activity is described as follows. Reporter cell lines can be generated by stably transducing cancer cell lines (e.g., colon cancer) or primary cells (e.g., IEC-6 intestinal cells) with a lentiviral construct that includes a Wnt-responsive promoter driving expression of the firefly luciferase gene.
SW480 colon carcinoma cells were transduced with a lentiviral vector expressing luciferase with a human Sp5 promoter consisting of a sequence of eight TCF/LEF binding sites. SW480 cells stably expressing the Sp5-Luc reporter gene and a hygromycin resistance gene were selected by treatment with 150 μg/mL of hygromycin for 7 days. These stably transduced SW480 cells were expanded in cell culture and used for all further screening activities. Each compound was dissolved in DMSO as a 10 mM stock and used to prepare compound source plates. Serial dilution (1:3, 10-point dose-response curves starting from 10 μM) and compound transfer was performed using the ECHO 550 (Labcyte, Sunnyvale, Calif.) into 384-well white solid bottom assay plates (Greiner Bio-One) with appropriate DMSO backfill for a final DMSO concentration of 0.1%. For Sp5-Luc reporter gene assays, the cells were plated at 4,000 cells/well in 384-well plates with medium containing 1% fetal bovine serum and incubated overnight at 37° C. and 5% CO2. Following incubation, 20 μl of BrightGlo luminescence reagent (Promega) was added to each well of the 384-well assay plates. The plates were placed on an orbital shaker for 2 min and then luminescence was quantified using the Envision (Perkin Elmer) plate reader. Readings were normalized to DMSO only treated cells, and normalized activities were utilized for EC50 calculations using the dose-response log (inhibitor) vs. response -variable slope (four parameters) nonlinear regression feature available in GraphPad Prism 5.0 (or Dotmatics). For EC50 of >10 μM, the percent inhibition at 10 μM is provided.

SW480 colon cancer cells = assay: Cell viability assay (CellTiter-Blue); conditions: Homo sapiens, 96 h; SW480 cell viability, four days, CellTiter-Blue
Protocol: Representative compounds were screened using the following assay procedure to assess the effect on cell viability as described below.
Each compound was dissolved in DMSO as a 10 mM stock and used to prepare compound source plates. Serial dilution (1:3, 8-point dose-response curves from 10 μM to 0.0045 μM) and compound transfer was performed using the ECHO 550 (Labcyte, Sunnyvale, Calif.) into 96-well clear bottom, black-walled plates (Corning-Costar).
Approximately 2×10^3 SW480 colon cancer cells were seeded into each well and allowed to incubate in the presence or absence of compound for four days at 37° C./5% CO2. Eight replicates of DMSO-treated cells served as controls and cells treated with compound were performed in duplicate.
After incubation, 20 μL of CellTiter-Blue (Promega) was added to each well allowed to incubate for approximately 3 hours. This reagent was a buffered solution which contains resazurin, metabolically active cells were able to reduce rezarurin (blue) into resorufin (pink) which was highly fluorescent. This measured fluorescence was used as a readout for cell viability.
After incubation, the plates were read at Ex 560 nm Em 590 nm (Cytation 3, BioTek). Dose-response curves were generated and EC50 concentration values were calculated using non-linear regression curve fit in the GraphPad Prism (San Diego, Calif.) or Dotmatics' Studies Software (Bishops Stortford, UK). For EC50 of >10 μM, the percent inhibition at 10 μM is provided.

IL-6 (THP-1 cells) = assay: IL-6 inhibition in LPS-stimulated THP-1 cells (HTRF); conditions: Homo sapiens; THP-1 cells, LPS 500 ng/mL, 22 hours, IL6 HTRF
Protocol: Human Monocyte Cell Culture: Human monocyte cell line (THP-1 cells; Catalog # TIB-202, ATCC, Manassas, Va.) were cultured in Roswell Park Memorial Institute (RPMI) 1640 Medium (Catalog #21870-100, Buffalo, N.Y.) with 1% L-glutamine, 1% HEPES, 1% Sodium Pyruvate, 2% Sodium Bicarbonate supplemented with 100 units/mL penicillin, 50 μg/mL streptomycin, 2-mercaptoethanol (0.05 mM) [basal medium] and 10% fetal bovine serum (Catalog #16140089, Life Technologies, Carlsbad, Calif.) at 37° C. and 5% CO2.
Compound Screening: THP-1 cells were cultured in basal media with 1% FBS for 24 hours before the start of the assay. Each compound was dissolved in DMSO as a 10 mM stock and used to prepare compound source plates. Serial dilution (1:3, 10-point dose-response curves starting from 10 μM) and compound transfer was performed using the ECHO 550 (Labcyte, Sunnyvale, Calif.) into 384-well white low volume assay plates (Greiner Bio-One) with appropriate DMSO backfill for a final DMSO concentration of 0.1%. THP-1 cells were plated at 5000 cells/well in the 384-well plates and incubated at 37° C. for 2 h. 500 ng/mL of LPS was added after 2 hours and cells were incubated for another 22 hours at 37° C. Plates were spun in a centrifuge for 1 minute at […] and a mixture of anti-IL6 XL665, and anti-IL6 Cryptate diluted in reconstitution buffer (Cisbio Inc.) was added to each well. Following incubation for 3 hrs at room temperature, Homogeneous Time-Resolved Fluorescence (HTRF) was measured using the Envision (Perkin Elmer) at 665 nm and […]. The ratio of fluorescence at 665 nm to 620 nm was used as a readout for IL6 quantification. All samples were processed in duplicate. Readings were normalized to DMSO treated cells and normalized activities were utilized for EC50 calculations using the dose-response log (inhibitor) vs. response —variable slope (four parameters) nonlinear regression feature available in GraphPad Prism 5.0 (or Dotmatics). For EC50 of >10 μM, the percent inhibition at 10 μM is provided.

CC(C)Nc1cncc(-c2ccc3[nH]nc(-c4cc5c(-c6cccs6)ccnc5[nH]4)c3n2)c1 [Compound 348, N-Isopropyl-5-(3-(4-(thiophen-2-yl)-1H-pyrrolo[2,3-b]pyridin-2-yl)-1H-pyrazolo[4,3-b]pyridin-5-yl)pyridin-3-amine]
EC50 [1]: 0.994 µM | EC50 [2]: 1.34 µM | EC50 (SW480 colon cancer cells): 4.27 µM | EC50 (IL-6 (THP-1 cells)): 1.35 µM

CN(C)CCNc1cc(F)cc(-c2ccnc3[nH]c(-c4n[nH]c5ccc(-c6cncc(NC(=O)c7ccccc7)c6)nc45)cc23)c1 [Compound 459, N-(5-(3-(4-(3-((2-(Dimethylamino)ethyl)amino)-5-fluorophenyl)-1H-pyrrolo [2,3-b]pyridin-2-yl)-1H-pyrazolo[4,3-b]pyridin-5-yl)pyridin-3-yl)benzamide]
EC50 [1]: 0.738 µM | EC50 [2]: 1.5 µM | EC50 (SW480 colon cancer cells): 1.94 µM | EC50 (IL-6 (THP-1 cells)): 0.009 µM
